Experimental data reported in patent US20170333391A1, “METHOD FOR DELAYING THE ONSET OF PULMONARY FIBROSIS OR TREATING PULMONARY FIBROSIS” (EVERFRONT BIOTECH INC., priority 2016, published 2017).

How the values were obtained:
Assay type in all cases: cell-based, human
[1] = system: type I collagen; assay: Type I collagen expression in transfected NHLF (pcDNA3.1 empty vector or pcDNA3.1-SOX2), western blotting (2-3); details: TGF-β1 5 ng/ml 12 h
Procedure: (§1) The pcDNA3.1 empty vector and the pcDNA3.1-SOX2 plasmid (i.e., pcDNA3.1 vector containing SOX2 gene) were respectively transfected into Normal Human lung fibroblasts (NHLF) by the Fugene HD cell transfection reagent. The cells were screened to obtain NHLFs containing the pcDNA3.1 empty vector or the pcDNA3.1-SOX2 plasmid.
(§2) NHLFs containing the pcDNA3.1 empty vector were then seeded into 6 cm culture dishes at a density of 2×10^5 cells/dish, comprising a control group and three experimental groups (4 dishes in total). The cells were cultured until the next day, and then the mediums were removed. Each group was respectively treated under the following conditions to conduct follow-up experiments: • (1) Control group I: cells were cultured in a FGM-2 medium containing 1% serum for 36 hours; • (2) Group A: cells were cultured in a FGM-2 medium containing 1% serum and TGF-β1 (5 ng/ml) for 36 hours; • (3) Group B: cells were firstly cultured in a FGM-2 medium containing 1% serum and TGF-β1 (5 ng/ml) for 12 hours, and then compound (1) was added into the medium to provide a final concentration of 15 μg/ml; thereafter, the cells were cultured for another 24 hours; and • (4) Group C: cells were firstly cultured in a FGM-2 medium containing 1% serum and TGF-β1 (5 ng/ml) for 12 hours, and then compound (1) was added into the medium to provide a final concentration of 30 μg/ml; thereafter, the cells were cultured for another 24 hours.
(§3) In another aspect, NHLFs containing the pcDNA3.1-SOX2 plasmid were seeded into the 6 cm culture dishes at a density of 2×10^5 cells/dish, comprising a control group and three experimental groups (4 dishes in total). The cells were cultured until the next day, and then the mediums were removed. Each group was respectively treated under the following conditions to conduct follow-up experiments: • (1) Control group II: cells were cultured in a FGM-2 medium containing 1% serum for 36 hours; • (2) Group D: cells were cultured in a FGM-2 medium containing 1% serum and TGF-β1 (5 ng/ml) for 36 hours; • (3) Group E: cells were firstly cultured in a FGM-2 medium containing 1% serum and TGF-β1 (5 ng/ml) for 12 hours, and then the compound (1) was added into the medium to provide a final concentration of 15 μg/ml; thereafter, the cells were cultured for another 24 hours; and • (4) Group F: cells were firstly cultured in a FGM-2 medium containing 1% serum and TGF-β1 (5 ng/ml) for 12 hours, and then the compound (1) was added into the medium to provide a final concentration of 30 μg/ml; thereafter, the cells were cultured for another 24 hours.
(§4) Thereafter, the proteins in the cells of each group were extracted, and the expressions of Sox2 protein, TGF-β protein and type I collagen in the NHLF cells of each group were measured with western blotting. […]

[2] = system: BMP-7 protein; assay: BMP-7 protein expression in NHLF, western blotting (3-1)
Procedure: Normal Human lung fibroblasts (NHLF) were seeded into 6 cm culture dishes at a density of 2×10^5 cells/dish, comprising a control group and six experimental groups (7 dishes in total). The cells were cultured until the next day, and then the mediums were removed. Each group was respectively treated under the following conditions to conduct follow-up experiments: • (1) Control group: cells were cultured in a FGM-2 medium containing 10% serum for 36 hours; • (2) Group i: cells were cultured in a FGM-2 medium containing 1% serum for 36 hours; • (3) Group ii: cells were firstly cultured in a FGM-2 medium containing 1% serum for 12 hours, and then compound (1) was added into the medium to provide a final concentration of 15 μg/ml; thereafter, the cells were cultured for another 24 hours; • (4) Group iii: cells were firstly cultured in a FGM-2 medium containing 1% serum for 12 hours, and then compound (1) was added into the medium to provide a final concentration of 25 μg/ml; thereafter, the cells were cultured for another 24 hours; • (5) Group iv: cells were cultured in a FGM-2 medium containing 1% serum and TGF-β1 (5 ng/ml) for 36 hours; • (6) Group v: cells were firstly cultured in a FGM-2 medium containing 1% serum and TGF-β1 (5 ng/ml) for 12 hours, and then compound (1) was added into the medium to provide a final concentration of 15 μg/ml; thereafter, the cells were cultured for another 24 hours; and • (7) Group vi: cells were firstly cultured in a FGM-2 medium containing 1% serum and TGF-β1 (5 ng/ml) for 12 hours, and then compound (1) was added into the medium to provide a final concentration of 25 μg/ml; thereafter, the cells were cultured for another 24 hours.
Thereafter, the proteins in the cells of each group were extracted, and the expressions of BMP-7 protein, TGF-β protein and α-SMA protein in the NHLF cells of each group were measured with western blotting, wherein the β-actin served as the internal control. The results of the control group served as the basis for calculating the relative expression levels of the other groups.

[3] = system: Sox2 protein; assay: Sox2 protein expression in transfected NHLF (pcDNA3.1 empty vector or pcDNA3.1-SOX2), western blotting (2-3); details: TGF-β1 5 ng/ml 12 h
Procedure: as §1, §2, §3, §4

CCCC=C1OC(=O)c2ccccc21 [compound (1)]
Relative expression level (fold) Type I collagen ([1]; Group B: NHLF with pcDNA3.1 empty vector, then compound (1) 15 μg/ml 24 h, control group I = 1, TGF-β1-only group A = 5.83): 3.74 fold
Relative expression level (fold) Type I collagen ([1]; Group C: NHLF with pcDNA3.1 empty vector, then compound (1) 30 μg/ml 24 h, control group I = 1, TGF-β1-only group A = 5.83): 0.88 fold
Relative expression level (fold) Type I collagen ([1]; Group E: NHLF with pcDNA3.1-SOX2 plasmid, then compound (1) 15 μg/ml 24 h, control group II = 1, TGF-β1-only group D = 1.57): 1.30 fold
Relative expression level (fold) Type I collagen ([1]; Group F: NHLF with pcDNA3.1-SOX2 plasmid, then compound (1) 30 μg/ml 24 h, control group II = 1, TGF-β1-only group D = 1.57): 1.29 fold
Relative expression level (fold) BMP-7 protein ([2]; Group ii: 1% serum 12 h, then compound (1) 15 μg/ml 24 h, no TGF-β1, 10% serum control = 1, 1% serum group i = 1): 0.91 fold
Relative expression level (fold) BMP-7 protein ([2]; Group iii: 1% serum 12 h, then compound (1) 25 μg/ml 24 h, no TGF-β1, 10% serum control = 1, 1% serum group i = 1): 0.81 fold
Relative expression level (fold) BMP-7 protein ([2]; Group v: 1% serum + TGF-β1 5 ng/ml 12 h, then compound (1) 15 μg/ml 24 h, 10% serum control = 1, TGF-β1-only group iv = 0.82): 0.76 fold
Relative expression level (fold) BMP-7 protein ([2]; Group vi: 1% serum + TGF-β1 5 ng/ml 12 h, then compound (1) 25 μg/ml 24 h, 10% serum control = 1, TGF-β1-only group iv = 0.82): 1.07 fold
Relative expression level (fold) Sox2 protein ([3]; Group B: NHLF with pcDNA3.1 empty vector, then compound (1) 15 μg/ml 24 h, control group I = 1, TGF-β1-only group A = 1.55): 1.81 fold
Relative expression level (fold) Sox2 protein ([3]; Group C: NHLF with pcDNA3.1 empty vector, then compound (1) 30 μg/ml 24 h, control group I = 1, TGF-β1-only group A = 1.55): 1.04 fold
Relative expression level (fold) Sox2 protein ([3]; Group E: NHLF with pcDNA3.1-SOX2 plasmid, then compound (1) 15 μg/ml 24 h, control group II = 1, TGF-β1-only group D = 0.88): 1.03 fold
Relative expression level (fold) Sox2 protein ([3]; Group F: NHLF with pcDNA3.1-SOX2 plasmid, then compound (1) 30 μg/ml 24 h, control group II = 1, TGF-β1-only group D = 0.88): 1.02 fold
